The target of assay [1] is T1, human GPR55 (Homo sapiens, UniProt Q9Y2T6).
T1 construct: host or cells: CHO cells
The following applies: previous study; cited from earlier work.

The target of assay [2] is T2, human CB1 receptor (Homo sapiens, UniProt P21554).
T2 construct: expressed in transfected cells; host or cells: CHO cells (membrane preparations)
In words: biochemical. Type of assay: binding. As to conditions: [3H]CP55,940 0.1 nM, CHO cell membranes; read-out: Ki ± SEM Human CB1.

The target in assay [3] is T3, human CB2 receptor (Homo sapiens, UniProt P34972).
T3 construct: expressed in transfected cells; host or cells: CHO cells (membrane preparations)
T3 sequence (P34972 whole entry): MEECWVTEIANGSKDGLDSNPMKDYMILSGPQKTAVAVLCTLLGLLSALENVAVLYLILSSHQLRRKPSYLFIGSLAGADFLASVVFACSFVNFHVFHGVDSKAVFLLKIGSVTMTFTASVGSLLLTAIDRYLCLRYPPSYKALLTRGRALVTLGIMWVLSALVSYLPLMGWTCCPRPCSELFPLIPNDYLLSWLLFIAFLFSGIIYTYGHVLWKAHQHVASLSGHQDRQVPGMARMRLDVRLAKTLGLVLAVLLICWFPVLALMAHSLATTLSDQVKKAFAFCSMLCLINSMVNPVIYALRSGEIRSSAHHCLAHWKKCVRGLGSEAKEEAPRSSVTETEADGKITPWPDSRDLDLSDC
In words: biochemical. Type of assay: binding. As to conditions: [3H]CP55,940 0.1 nM, CHO cell membranes; read-out: Ki ± SEM Human CB2.

For assay [4], the target named is T2, human CB1 receptor. In words: cAMP accumulation assay, CHO cells stably expressing CB1. Type of assay: cell-based. The following applies: compound at 10 µM; normalized to CP55,940 (1 µM). How it is done:
(§1) cAMP accumulation assays were performed also as previously described. Briefly, CHO cells stably expressing the respective human CB receptor subtype CB1 or CB2 were seeded overnight. […] After incubation for 15 min the buffer was removed, and the cells were lyzed. The amount of cAMP was determined in a radioligand binding assay by incubating 50 µL of the cell lysate with 3 nM [^3H]cAMP in the presence of protein preparations from bovine adrenal glands (cAMP binding protein). Bound and unbound radioligand were separated by rapid filtration through GF/B filters, and radioactivity was determined by liquid scintillation counting. To test for antagonistic activity, test compounds were added to Hank’s buffered salt solution (HBSS) containing 10% dimethyl sulfoxide (DMSO), 10 min after the application of Ro-20-1724, and the mixture was incubated for 20 min at 37 °C.
(§2) As a next step, we investigated the compounds in cAMP accumulation assays, to obtain information on their functionality (Fig. 3). CB receptors are Gi protein-coupled and thus reduce the levels of cAMP in the cells upon activation.
A general note: Changes in cAMP serve as a functional read-out for many G protein-coupled receptors.

Assay [5] deals with T3, human CB2 receptor. Briefly: cAMP accumulation assay, CHO cells stably expressing CB2. Type of assay: cell-based. The following applies: compound at 10 µM; normalized to CP55,940 (1 µM). How it is done:
as §1, §2

The target of assay [6] is T1, human GPR55. Briefly: β-Arrestin PathHunter assay, recombinant CHO cells expressing GPR55. Type of assay: cell-based.
A further assay addresses T4, human GPR18 (Homo sapiens, UniProt Q14330).
T4 construct: host or cells: CHO cells
T4 sequence (Q14330 1-331): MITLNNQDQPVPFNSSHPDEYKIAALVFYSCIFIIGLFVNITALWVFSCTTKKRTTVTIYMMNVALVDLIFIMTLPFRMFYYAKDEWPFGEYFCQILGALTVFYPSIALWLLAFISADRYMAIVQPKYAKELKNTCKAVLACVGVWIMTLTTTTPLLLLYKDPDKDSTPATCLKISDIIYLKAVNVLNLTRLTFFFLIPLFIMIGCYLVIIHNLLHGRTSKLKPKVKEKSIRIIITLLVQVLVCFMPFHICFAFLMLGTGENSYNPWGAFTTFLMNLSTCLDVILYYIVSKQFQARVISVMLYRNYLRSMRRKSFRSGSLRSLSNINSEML
Briefly: β-Arrestin PathHunter assay, recombinant CHO cells expressing GPR18. The class given is cell-based.

For a further assay, the target named is CB1 receptor. More on the design: method as in Wiley et al. [41]. The following applies: versus 0.62 nM [3H]CP55,940; ref Wiley et al. [41]; cited from earlier work.
The target of a further assay is CB2 receptor. Also on record: method as in Wiley et al. [41]. As to conditions: versus 0.62 nM [3H]CP55,940; ref Wiley et al. [41]; cited from earlier work.
On the set-up of assay [7]: method as in Wiley et al. [41]. As to conditions: receptor subtype not stated; ref Wiley et al. [41]; read-out: EC50 in [35S]GTPγS assays; cited from earlier work.
Where [8] appears, read: agonist mode, value in parentheses.

As usually defined, the IC50 is the midpoint of a concentration-inhibition curve. Broadly, the Ki is a measure of affinity in units of concentration, obtained from inhibition or displacement. As usually defined, the EC50 is the concentration giving half of the maximal effect.

Where two headings read alike, the source gives them in different places.

T1 sequence (Q9Y2T6 whole entry): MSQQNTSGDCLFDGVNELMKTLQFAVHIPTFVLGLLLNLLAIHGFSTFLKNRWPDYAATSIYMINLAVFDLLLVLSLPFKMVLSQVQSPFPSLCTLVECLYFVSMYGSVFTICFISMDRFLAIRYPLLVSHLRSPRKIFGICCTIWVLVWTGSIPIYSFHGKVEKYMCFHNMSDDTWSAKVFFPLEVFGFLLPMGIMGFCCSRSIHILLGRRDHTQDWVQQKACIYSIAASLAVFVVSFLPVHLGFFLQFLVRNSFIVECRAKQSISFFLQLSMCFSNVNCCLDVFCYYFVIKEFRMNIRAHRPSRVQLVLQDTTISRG
T2 sequence (P21554 whole entry): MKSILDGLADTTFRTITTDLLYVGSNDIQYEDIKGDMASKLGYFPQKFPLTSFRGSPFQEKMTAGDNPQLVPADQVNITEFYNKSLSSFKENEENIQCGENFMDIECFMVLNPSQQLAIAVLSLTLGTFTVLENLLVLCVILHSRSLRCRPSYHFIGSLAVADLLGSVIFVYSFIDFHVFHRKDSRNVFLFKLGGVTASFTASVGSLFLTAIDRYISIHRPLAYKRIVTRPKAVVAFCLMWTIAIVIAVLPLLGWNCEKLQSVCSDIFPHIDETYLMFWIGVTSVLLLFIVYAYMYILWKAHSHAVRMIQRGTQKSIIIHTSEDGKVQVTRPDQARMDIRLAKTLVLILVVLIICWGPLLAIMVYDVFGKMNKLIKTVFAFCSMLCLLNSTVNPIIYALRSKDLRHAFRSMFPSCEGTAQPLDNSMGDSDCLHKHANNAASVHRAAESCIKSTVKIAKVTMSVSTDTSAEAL

With `CCc1ccc(C(=O)c2cn(CCCCCF)c3ccccc23)c2ccccc12` [EAM-2201], at human GPR55 [1], the 50% inhibitory concentration (IC50) is 1860 nM.
As to `O=C(c1cccc2ccccc12)c1nc2ccccc2n1CCCCCF` [compound 42, FUBIMINA], the inhibition constant (Ki) is 502 ± 181 nM at human CB1 receptor [2], 99 ± 28.4 nM on human CB2 receptor [3], 296 nM at CB1 receptor and 23.5 nM on CB2 receptor. In addition, the “CB1 receptor activation in cAMP accumulation assay (in words)” value on human CB1 receptor [4] is listed as “partial activation”. The “CB2 receptor activation in cAMP accumulation assay (in words)” value at human CB2 receptor [5] is recorded as “partial activation”. Also, the “Human GPR55 % activation” value on human GPR55 [6] (setting [8]) was 16%. Further, the EC50 is above 10 µM on human GPR55 [6] (agonist mode, read-out: Human GPR55 EC50); above 10 µM at human GPR18 (agonist mode, read-out: Human GPR18 EC50); 2470 nM in [7]. In addition, the “Human GPR55 % inhibition” value at human GPR55 [6] (antagonist mode versus LPI 1 µM, value in parentheses) turned out to be 44%. In addition, the IC50 on human GPR55 [6] (antagonist mode versus lysophosphatidylinositol (LPI, 1 µM), read-out: Human GPR55 IC50) is above 10 µM; at human GPR18 (antagonist mode, read-out: Human GPR18 IC50), above 10 µM. Also, the “Human GPR18 % activation” value at human GPR18 (setting [8]) amounted to 42%. The “Human GPR18 % inhibition” value at human GPR18 (antagonist mode, value in parentheses) came to 14%.

These data come from article PMC6002460, “Pharmacological evaluation of new constituents of “Spice”: synthetic cannabinoids based on indole, indazole, benzimidazole and carbazole scaffolds” (Forensic Toxicology, 2018).
